We go through 17 compounds from patent publication US20250136568A1, “FUSED HETEROCYCLIC COMPOUNDS AS PI3KALPHA INHIBITORS” (Nanjing Zenshine Pharmaceuticals Co., Ltd., priority 2021, published 2025).

Read-outs that look alike come from different tables or passages of the source.

Usually IC50 stands for the midpoint of a concentration-inhibition curve. In general, bioavailability refers to dose-corrected exposure relative to a reference, in per cent. High values mean good availability, low ones poor availability. One may read the clearance as the rate of elimination divided by the concentration. Higher therefore signals efficient removal. What is called Cmax is the peak of the concentration-time curve. The MRT is the average time that molecules of a dose stay in the body.

One data set addresses PI3Kα H1047R mutant (Homo sapiens, UniProt P42336, H1047R). In words: pAKT (S473) ELISA assay in PI3Kα H1047R mutant cell line (T47D). In kind it is cell-based. Particulars: T47D cells, two hours compound, IGF-1 50 ng/ml stimulation. The procedure:
(§1) Cells were serum starved for 4 hours prior to compound treatment; compound solution was added to each well (3-fold serial dilution starting at desired concentration) for two hours in serum-free medium, followed by stimulation with IGF-1 for 60 minutes at a final concentration of 50 ng/ml as noted. After compound treatment and stimulation, discarded the supernatant and cells were lysed by cell lysis buffer (Cell Signaling Technology, #9803S). The lysate was transferred to the ELISA plate, the Phospho-AKT (Ser473) ELISA was performed as the manufacturer's directions (Cell Signaling Technology, #7160CA).

For another data set, the target named is T1, PI3Kβ (Homo sapiens, UniProt P42338).
T1 construct: endogenous in cells; host or cells: 786-O
Nature of the data set: Selectivity study, p-AKT (Ser473) HTRF assay in 786-O cells. In kind it is cell-based. Particulars: 786-O cell, 1 hour incubation, serum-free medium. The procedure:
The following day, the complete medium was replaced with serum-free medium, 3-fold serial diluted compound solution in serum-free medium was added to each well according to the plate map. After 1 hour incubation, removed cell supernatant carefully and added supplemented lysis buffer (1×) for 45 min. The lysate was transferred to a 384-well small volume white plate, the CisBio Phospho-AKT (Ser473) HTRF assay was performed as the manufacturer's directions (Cisbio, #64AKSPEG).
A general note: Time-resolved FRET reads energy transfer from a long-lived donor to a nearby acceptor.

The next data set has as its target PI3Kα WT (Homo sapiens, UniProt P42336). In words: pAKT (S473) ELISA assay in WT cell line (SK-BR-3). Format: cell-based. Particulars: SK-BR-3 cells, two hours compound, IGF-1 50 ng/ml stimulation. The procedure:
as §1
In general terms: ELISA stands for enzyme-linked immunosorbent assay.

The next data set is described as follows: in vivo. Particulars: male, CD1, mouse.
Data set [1] deals with PI3Kα H1047R mutation cell line T-47D. In words: Cell Proliferation IC50 Assay (CellTiter-Glo), T-47D. In kind it is cell-based. Particulars: T47D (H1047R), 72 hours, CellTiter-Glo, read-out: IC50 (μM) T47D. Summed up:
(§2)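 Read-out was CellTiter-Glo luminescence after 72 h of compound exposure at 37 °C, 5% CO2. Cells had been plated overnight in complete medium before the compound was added at a 200-fold final dilution. IC50 was derived from percent inhibition.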

The test system of data set [2] is PI3Kα wide type cell line SK-BR-3. Nature of the data set: Cell Proliferation IC50 Assay (CellTiter-Glo), SK-BR-3. Format: cell-based. Particulars: SK-BR-3 (PI3Kα wild type), 72 hours, CellTiter-Glo, read-out: IC50 (μM) SK-BR-3. Summed up:
as §2
On the technique in general: In ATP-based viability assays light output follows the ATP content of the culture.

For data set [3], the system named is PI3Kα H1047R mutation cell line MDA-MB-453. In words: Cell Proliferation IC50 Assay (CellTiter-Glo), MDA-MB-453. In kind it is cell-based. Particulars: MDA-MB-453 (H1047R), 72 hours, CellTiter-Glo, read-out: IC50 (μM) MDA-MB-453. Summed up:
as §2

Data set [4] in a line: In vivo pharmacokinetics in mice. Particulars: for clearance / bioavailability: male, CD1, mouse, plasma; for clearance: intravenous, 1 mg/kg; for bioavailability: oral, 5 mg/kg.
Method: Dosing solutions were prepared at 0.5 mg/mL in 10% DMSO/10% HP—3-CD/80% water. A dosing solution was administered to Male CD1 mice (4-6 weeks, 20-30 g, 3 mice each group) via intravenous (TV) bolus at 1 mg/kg and by oral gavage (PO) at 5 mg/kg. The dose formulations were kept at room temperature and administrated within 30 mins for IV/PO. Blood samples (0.3 mL each time point) were collected into tubes containing ethylenediaminetetraacetic acid (K2EDTA) as the anticoagulant at 0, 0033, 0.083, 0.25, 05, 1, 2, 4, 8 and 24 hours post dose for IV administrated and 0, 0.083, 0.25, 0.5, 1, 2, 4, 8 and 24 hours post dose for PO administration. The blood sample were then centrifuged for 5 minutes in centrifuge refrigerated at 4° C. The samples were stored in a freezer at −75±15° C. prior to analysis. Concentrations of Compound in the plasma samples were analyzed using a LC-MS/MS method. WinNonlin (Phoenix™, version 8.3) or other similar software were used for pharmacokinetic calculations. The following pharmacokinetic parameters were calculated, whenever possible from the plasma concentration versus time data: MRT, Cmax, Tmax, AUClast, AUCinf, F %, Number of Points for Regression.
The mark [5] stands for this setting: CD1 mice, IV bolus at 1 mg/kg and PO at 5 mg/kg.

T1 sequence (P42338 whole entry): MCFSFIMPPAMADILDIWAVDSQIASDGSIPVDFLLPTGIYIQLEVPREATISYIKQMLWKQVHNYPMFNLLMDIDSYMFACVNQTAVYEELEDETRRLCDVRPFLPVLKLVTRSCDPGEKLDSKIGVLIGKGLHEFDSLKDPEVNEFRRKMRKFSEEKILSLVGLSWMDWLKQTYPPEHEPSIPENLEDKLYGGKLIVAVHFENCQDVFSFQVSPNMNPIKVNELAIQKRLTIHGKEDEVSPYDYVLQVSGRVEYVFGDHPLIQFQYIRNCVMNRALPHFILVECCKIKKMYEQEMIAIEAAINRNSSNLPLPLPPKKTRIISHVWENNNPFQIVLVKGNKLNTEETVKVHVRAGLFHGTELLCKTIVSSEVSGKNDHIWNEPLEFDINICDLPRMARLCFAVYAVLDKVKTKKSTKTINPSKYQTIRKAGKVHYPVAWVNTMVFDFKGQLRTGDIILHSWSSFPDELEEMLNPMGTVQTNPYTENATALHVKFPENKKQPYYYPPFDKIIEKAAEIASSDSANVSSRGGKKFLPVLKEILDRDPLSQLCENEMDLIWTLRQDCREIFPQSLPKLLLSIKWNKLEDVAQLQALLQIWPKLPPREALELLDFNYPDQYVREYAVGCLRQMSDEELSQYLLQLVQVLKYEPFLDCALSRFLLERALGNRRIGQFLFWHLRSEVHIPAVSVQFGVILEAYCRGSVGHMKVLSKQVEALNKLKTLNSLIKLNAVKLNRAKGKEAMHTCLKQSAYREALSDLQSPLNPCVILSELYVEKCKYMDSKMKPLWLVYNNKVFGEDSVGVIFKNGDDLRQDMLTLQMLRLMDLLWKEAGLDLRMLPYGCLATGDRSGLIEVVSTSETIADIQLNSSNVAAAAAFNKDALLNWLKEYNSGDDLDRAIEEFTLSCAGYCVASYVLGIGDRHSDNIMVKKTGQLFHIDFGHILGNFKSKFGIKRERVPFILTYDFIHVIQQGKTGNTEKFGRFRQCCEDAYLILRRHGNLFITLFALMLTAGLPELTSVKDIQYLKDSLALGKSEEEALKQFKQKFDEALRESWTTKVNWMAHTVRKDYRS
T1 sequence (P27986 whole entry partner): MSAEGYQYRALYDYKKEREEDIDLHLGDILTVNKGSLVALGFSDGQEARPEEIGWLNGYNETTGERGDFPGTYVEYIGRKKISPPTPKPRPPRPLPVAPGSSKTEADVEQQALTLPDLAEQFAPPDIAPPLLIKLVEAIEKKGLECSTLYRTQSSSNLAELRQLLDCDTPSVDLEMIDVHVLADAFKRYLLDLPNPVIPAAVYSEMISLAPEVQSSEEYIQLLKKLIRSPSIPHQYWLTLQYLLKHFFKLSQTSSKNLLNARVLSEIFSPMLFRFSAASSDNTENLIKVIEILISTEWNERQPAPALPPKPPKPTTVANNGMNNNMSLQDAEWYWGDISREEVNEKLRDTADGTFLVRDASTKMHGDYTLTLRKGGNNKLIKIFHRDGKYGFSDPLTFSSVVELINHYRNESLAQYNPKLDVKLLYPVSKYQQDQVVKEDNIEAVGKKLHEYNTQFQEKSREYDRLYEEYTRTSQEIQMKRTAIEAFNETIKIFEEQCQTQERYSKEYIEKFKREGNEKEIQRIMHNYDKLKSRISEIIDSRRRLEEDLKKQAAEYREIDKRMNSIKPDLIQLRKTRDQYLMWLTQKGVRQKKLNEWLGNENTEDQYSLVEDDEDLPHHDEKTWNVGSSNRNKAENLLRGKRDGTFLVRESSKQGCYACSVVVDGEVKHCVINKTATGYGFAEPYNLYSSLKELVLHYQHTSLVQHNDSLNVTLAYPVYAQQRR
PI3Kα WT, sequence (P42336 whole entry): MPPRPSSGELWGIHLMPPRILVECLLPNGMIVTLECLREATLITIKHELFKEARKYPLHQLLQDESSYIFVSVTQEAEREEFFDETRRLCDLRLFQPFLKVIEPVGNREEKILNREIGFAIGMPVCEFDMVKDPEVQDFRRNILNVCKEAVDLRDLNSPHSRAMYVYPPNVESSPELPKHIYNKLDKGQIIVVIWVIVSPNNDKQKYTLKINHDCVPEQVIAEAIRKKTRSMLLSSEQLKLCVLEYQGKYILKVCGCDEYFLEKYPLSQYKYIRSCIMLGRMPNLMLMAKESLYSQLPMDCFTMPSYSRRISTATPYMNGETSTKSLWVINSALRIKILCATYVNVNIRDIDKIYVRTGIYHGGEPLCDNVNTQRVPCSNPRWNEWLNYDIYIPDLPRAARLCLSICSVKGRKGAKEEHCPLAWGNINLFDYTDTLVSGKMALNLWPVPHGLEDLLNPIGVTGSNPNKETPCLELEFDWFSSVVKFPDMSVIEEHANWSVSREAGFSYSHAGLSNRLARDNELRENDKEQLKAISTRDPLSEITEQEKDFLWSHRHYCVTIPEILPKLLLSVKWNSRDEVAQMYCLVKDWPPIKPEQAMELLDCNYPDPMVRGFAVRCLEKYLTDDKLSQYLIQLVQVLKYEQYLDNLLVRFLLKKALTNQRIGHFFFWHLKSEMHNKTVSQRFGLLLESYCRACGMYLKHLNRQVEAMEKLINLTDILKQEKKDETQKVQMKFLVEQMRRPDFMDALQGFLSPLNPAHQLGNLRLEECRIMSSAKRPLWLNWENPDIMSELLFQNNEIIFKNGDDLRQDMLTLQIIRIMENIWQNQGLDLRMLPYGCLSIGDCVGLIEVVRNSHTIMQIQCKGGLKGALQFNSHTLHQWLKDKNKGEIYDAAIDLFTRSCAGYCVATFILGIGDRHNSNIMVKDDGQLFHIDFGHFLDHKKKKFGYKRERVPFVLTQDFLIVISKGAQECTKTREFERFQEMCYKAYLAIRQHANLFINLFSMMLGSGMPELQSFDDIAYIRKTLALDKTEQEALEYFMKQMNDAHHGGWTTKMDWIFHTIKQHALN
PI3Kα WT, sequence (P27986 whole entry partner): as the sequence (P27986 whole entry partner) above
PI3Kα H1047R mutant, sequence (P42336 whole entry H1047R): as the sequence (P42336 whole entry) above, with H1047R counted along it
PI3Kα H1047R mutant, sequence (P27986 whole entry partner): as the sequence (P27986 whole entry partner) above

As for `Cc1cc([C@@H](C)Nc2ccccc2C(=O)O)c2oc(-c3ccc(CN4CCN(C)CC4)cc3)c(C)c(=O)c2c1` [Example 147, 2-[[(1R)-1-[3,6-dimethyl-2-[4-[(4-methylpiperazin-1-yl)methyl]phenyl]-4-oxo-chromen-8-yl]ethyl]amino]benzoic acid], the IC50 was 46.5 nM against PI3Kα H1047R mutant; greater than 10000 nM at PI3Kβ; 6130 nM at PI3Kα WT; 0.055 µM in data set [1] (Homo sapiens); greater than 10 µM in data set [2] (Homo sapiens). The same compound yielded a bioavailability in “in vivo” of 46.5%. This compound also came in with a clearance in “in vivo” of 10.9 mL/min/kg.
For `Cc1cc([C@@H](C)Nc2ccccc2C(=O)O)c2oc(-c3ccc(-c4cnn(C)c4)nc3)c(C)c(=O)c2c1` [Example 150, (R)-2-((1-(3,6-dimethyl-2-(6-(1-methyl-H-pyrazol-4-yl)pyridin-3-yl)-4-oxo-41-chromen-8-yl)ethyl)amino)benzoic acid], the IC50 against PI3Kα H1047R mutant is 25 nM; in data set [3] (Homo sapiens), 0.13 µM; on PI3Kβ, greater than 10000 nM; against PI3Kα WT it was 2370 nM; in data set [1] (Homo sapiens, T47D, 72 h), 0.064 µM; in data set [2] (Homo sapiens) it was greater than 10 µM. For the same compound, the clearance in data set [4] turned out to be 3.75 mL/min/kg. For the same compound, in data set [4], the bioavailability worked out at 58.2%.
For the compound `Cc1cc([C@@H](C)Nc2ccccc2C(=O)O)c2oc(-c3ccc(OCCN(C)C)cc3)c(C)c(=O)c2c1` [Example 140, (R)-2-((1-(2-(4-(2-(dimethylamino)ethoxy)phenyl)-3,6-dimethyl-4-oxo-41-chromen-8-yl)ethyl)amino)benzoic acid], the IC50 is 42.3 nM against PI3Kα H1047R mutant; 0.029 µM in data set [3] (Homo sapiens); greater than 10000 nM against PI3Kβ; 2390 nM against PI3Kα WT; 0.041 µM in data set [1] (Homo sapiens, T47D, 72 h); greater than 10 µM in data set [2] (Homo sapiens).
On to `Cc1cc(C(C)Nc2ccc(Cl)nc2C(=O)O)c2oc(-c3ccc4nn(C)cc4c3)cc(=O)c2c1` (centres unmarked) [Example 110, 6-chloro-3-((1-(6-methyl-2-(2-methyl-2-indazol-5-yl)-4-oxo-4H-chromen-8-yl)ethyl)amino)picolinic acid], for which the IC50 is greater than 10000 nM at PI3Kβ; 0.087 µM in data set [1] (Homo sapiens, T47D, 72 h); greater than 10 µM in data set [2] (Homo sapiens).
For `Cc1cc([C@@H](C)Nc2ccccc2C(=O)O)c2oc(-c3ccc(CN4CCN(C)C(=O)C4)cc3)c(C)c(=O)c2c1` [Example 148, (R)-2-((1-(3,6-dimethyl-2-(4-((4-methyl-3-oxopiperazin-1-yl)methyl)phenyl)-4-oxo-4H-chromen-8-yl)ethyl)amino)benzoic acid], the IC50 at PI3Kα H1047R mutant is 48.5 nM; at PI3Kβ, greater than 10000 nM; on PI3Kα WT, 4340 nM; in data set [1] (Homo sapiens, T47D, 72 h), 0.066 µM; in data set [2] (Homo sapiens) it was greater than 10 µM.
On to `Cc1cc([C@@H](C)Nc2ccccc2C(=O)O)c2oc(-c3ccc4nn(C)cc4c3)cc(=O)c2c1` (single isomer, unassigned) [Example 38B], for which the IC50 against PI3Kα H1047R mutant is 25 nM; in data set [3] (Homo sapiens), 0.05 µM; at PI3Kβ it was 545 nM; at PI3Kα WT it was 1290 nM; in data set [1] (Homo sapiens, T47D, 72 h), 0.04 µM; in data set [2] (Homo sapiens), 8.5 µM. The compound also gave a clearance in data set [4] of 34 mL/min/kg. The compound also yielded a bioavailability in data set [4] of 45.5%.
As to `C[C@@H](Nc1ccccc1C(=O)O)c1cc(Cl)cc2c(=O)cc(-c3ccc4nn(C)cc4c3)oc12` (single isomer, unassigned) [Example 98B], the IC50 is 19.5 nM against PI3Kα H1047R mutant; greater than 10 µM in data set [3]; 1340 nM at PI3Kα WT; greater than 10 µM in data set [1]; greater than 10 µM in data set [2].
Turning to `CC(=O)N1CCN(c2ccc(-c3oc4c([C@@H](C)Nc5ccccc5C(=O)O)cc(C)cc4c(=O)c3C)cc2)CC1` (single isomer, unassigned) [Example 123A], the IC50 at PI3Kα H1047R mutant turned out to be 37 nM; in data set [3] (Homo sapiens), 0.15 µM; against PI3Kβ, 6460 nM; against PI3Kα WT it was 1100 nM; in data set [1] (Homo sapiens, T47D, 72 h), 0.076 µM; in data set [2] (Homo sapiens), 5.6 µM.
As to `Cc1cc(C(C)Nc2ccccc2C(=O)O)c2oc(-c3ccc4c(cnn4C)c3)cc(=O)c2c1` (centres unmarked) [Example 37, 2-((1-(6-methyl-2-(1-methyl-1H-indazol-5-yl)-4-oxo-4H-chromen-8-yl)ethyl)amino)benzoic acid], the IC50 in data set [3] (Homo sapiens) is 0.8 µM; in data set [1] (Homo sapiens, T47D, 72 h), 0.42 µM; in data set [2] (Homo sapiens), greater than 10 µM.
`CC(Nc1ccccc1C(=O)O)c1cc(Cl)cc2c(=O)cc(-c3ccc4nn(C)cc4c3)oc12` (centres unmarked) [Example 98, 2-((1-(6-chloro-2-(2-methyl-2H-indazol-5-yl)-4-oxo-4H-chromen-8-yl)ethyl)amino)benzoic] gave an IC50 against PI3Kβ of 1150 nM.
As to `Cc1cc(C(C)Nc2ccccc2C(=O)O)c2oc(-c3ccc4ncccc4c3)cc(=O)c2c1` (centres unmarked) [Example 35, 2-((1-(6-methyl-4-oxo-2-(quinolin-6-yl)-4H-chromen-8-yl)ethyl)amino)benzoic acid], the IC50 was 0.57 µM in data set [3] (Homo sapiens); 0.5 µM in data set [1] (Homo sapiens, T47D, 72 h); greater than 10 µM in data set [2] (Homo sapiens).
On the same counts, the results for `CC(=O)N1CCN(c2ccc(-c3oc4c([C@@H](C)Nc5ccccc5C(=O)O)cc(C)cc4c(=O)c3C)cc2F)CC1` [Example 154, (R)-2-((1-(2-(4-(4-acetylpiperazin-1-yl)-3-fluorophenyl)-3,6-dimethyl-4-oxo-41H-chromen-8-yl)ethyl)amino)benzoic acid] are 0.086 µM, 0.074 µM and greater than 10 µM.
`Cc1cc(C(C)Nc2ccccc2C(=O)O)c2oc(-c3ccc(-c4cnn(C)c4)cc3)cc(=O)c2c1` (centres unmarked) [Example 95, 2-((1-(6-methyl-2-(4-(1-methyl-1H-pyrazol-4-yl)phenyl)-4-oxo-4H-chromen-8-yl)ethyl)amino)benzoic acid]: on PI3Kβ, 1220 nM corresponded to half-maximal inhibition (IC50).
As for `Cc1cc(C(C)Nc2ccccc2C(=O)O)c2oc(-c3cccs3)cc(=O)c2c1` (centres unmarked) [Example 26, 2-((1-(6-methyl-4-oxo-2-(thiophen-2-yl)-4H-chromen-8-yl)ethyl)amino)benzoic acid], the 50% inhibitory concentration (IC50) in data set [3] (Homo sapiens) was 0.83 µM; in data set [1] (Homo sapiens, T47D, 72 h), 0.66 µM; in data set [2] (Homo sapiens), greater than 10 µM.
As for `Cc1cc(C(C)Nc2ccccc2C(=O)O)c2oc(-c3cc4ccccc4[nH]3)cc(=O)c2c1` (centres unmarked) [Example 25, 2-((1-(2-(1H-indol-2-yl)-6-methyl-4-oxo-4H-chromen-8-yl)ethyl)amino)benzoic acid], the IC50 in data set [3] (Homo sapiens) was 0.32 µM; in data set [1] (Homo sapiens, T47D, 72 h) it was 0.27 µM; in data set [2] (Homo sapiens) it was greater than 10 µM.
Take `Cc1cc(C(C)Nc2ccccc2C(=O)O)c2oc(-c3ccc(Cl)cc3)cc(=O)c2c1` (centres unmarked) [Example 3, 2-((1-(2-(4-chlorophenyl)-6-methyl-4-oxo-4H-chromen-8-yl)ethyl)amino)benzoic acid]: the IC50 in data set [3] (Homo sapiens) was 0.56 µM; in data set [1] (Homo sapiens, T47D, 72 h), 0.75 µM; in data set [2] (Homo sapiens) it was greater than 10 µM.
With “(R)-2-((1-(6-methyl-2-(41-methyl-1H-pyrazol-4-yl)phenyl)-4-oxo-4H-chromen-8-yl)ethyl)amino)benzoic acid [Example 95A]”, the IC50 against PI3Kα H1047R mutant was 12 nM; against PI3Kα WT, 1260 nM; in data set [1], 0.09 µM; in data set [2] it was greater than 10 µM. For the same compound, in data set [4] (setting [5]), the “Cmax” value was 102 ng/mL. For the same compound, in data set [4] (setting [5]), the “MRT” value came out at 7.64 h.
